Measurements reported in ChEMBL document CHEMBL3621057, “Multicomponent Synthesis and Biological Evaluation of a Piperazine-Based Dopamine Receptor Ligand Library” (ACS Med Chem Lett, 2015).
Activity calls are given as the source filed them. The rule behind the calls is not given here.

Experiments:
D(2) dopamine receptor [1] = biological target: T1, D(2) dopamine receptor (Homo sapiens, UniProt P14416); assay: Displacement of [3H]spiperone from human dopamine D2L receptor expressed in CHO cells; type: cell-based
D(3) dopamine receptor = D(3) dopamine receptor (Homo sapiens, UniProt P35462); assay: Displacement of [3H]spiperone from human dopamine D3 receptor expressed in CHO cells; type: cell-based
D(2) dopamine receptor [2] = biological target: T1, D(2) dopamine receptor; assay: Antagonist activity at human D2S receptor transfected in HEK293T cells assessed as forskolin-induced cAMP accumulation by BRET assay; type: functional, cell-based; conditions: HEK-293T
D(1A) dopamine receptor = D(1A) dopamine receptor (Homo sapiens, UniProt P21728); assay: Displacement of [3H]SCH23390 from human dopamine D1 receptor expressed in HEK cells; type: cell-based, HEK293
D(1B) dopamine receptor = D(1B) dopamine receptor (Homo sapiens, UniProt P21918); assay: Displacement of [3H]SCH23390 from human dopamine D5 receptor expressed in HEK cells; type: cell-based, HEK293
D(4) dopamine receptor = biological target: T2, D(4) dopamine receptor (Homo sapiens, UniProt P21917); assay: Displacement of [3H]spiperone from human dopamine D4 receptor expressed in CHO cells; type: cell-based
T2 sequence (P21917 whole entry): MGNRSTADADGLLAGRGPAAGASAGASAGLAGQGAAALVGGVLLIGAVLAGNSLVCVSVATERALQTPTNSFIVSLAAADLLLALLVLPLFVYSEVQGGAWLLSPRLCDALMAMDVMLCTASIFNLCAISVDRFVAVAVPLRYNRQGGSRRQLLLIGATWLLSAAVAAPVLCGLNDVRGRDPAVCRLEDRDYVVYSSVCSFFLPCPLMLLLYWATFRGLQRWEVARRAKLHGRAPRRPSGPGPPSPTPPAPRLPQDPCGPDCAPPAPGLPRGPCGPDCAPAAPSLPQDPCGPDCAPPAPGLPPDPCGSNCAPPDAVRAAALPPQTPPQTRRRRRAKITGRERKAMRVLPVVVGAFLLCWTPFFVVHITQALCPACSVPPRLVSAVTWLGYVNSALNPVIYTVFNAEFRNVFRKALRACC

D(2) dopamine receptor [3] = biological target: T1, D(2) dopamine receptor; assay: Displacement of [3H]spiperone from human dopamine D2S receptor expressed in CHO cells; type: cell-based

T1 sequence (P14416 whole entry): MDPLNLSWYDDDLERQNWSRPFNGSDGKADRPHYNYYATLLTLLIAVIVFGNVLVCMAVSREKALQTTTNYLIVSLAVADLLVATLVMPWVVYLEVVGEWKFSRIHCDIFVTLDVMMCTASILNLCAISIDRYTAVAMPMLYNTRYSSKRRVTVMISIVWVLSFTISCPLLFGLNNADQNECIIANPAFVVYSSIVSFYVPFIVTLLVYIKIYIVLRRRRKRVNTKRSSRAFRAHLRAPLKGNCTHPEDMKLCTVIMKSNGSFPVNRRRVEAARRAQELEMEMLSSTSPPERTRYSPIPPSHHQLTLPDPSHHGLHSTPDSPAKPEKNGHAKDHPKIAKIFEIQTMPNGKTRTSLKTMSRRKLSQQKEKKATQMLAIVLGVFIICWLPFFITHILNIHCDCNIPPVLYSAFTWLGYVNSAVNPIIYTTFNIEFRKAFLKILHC
D(3) dopamine receptor, sequence (P35462 whole entry): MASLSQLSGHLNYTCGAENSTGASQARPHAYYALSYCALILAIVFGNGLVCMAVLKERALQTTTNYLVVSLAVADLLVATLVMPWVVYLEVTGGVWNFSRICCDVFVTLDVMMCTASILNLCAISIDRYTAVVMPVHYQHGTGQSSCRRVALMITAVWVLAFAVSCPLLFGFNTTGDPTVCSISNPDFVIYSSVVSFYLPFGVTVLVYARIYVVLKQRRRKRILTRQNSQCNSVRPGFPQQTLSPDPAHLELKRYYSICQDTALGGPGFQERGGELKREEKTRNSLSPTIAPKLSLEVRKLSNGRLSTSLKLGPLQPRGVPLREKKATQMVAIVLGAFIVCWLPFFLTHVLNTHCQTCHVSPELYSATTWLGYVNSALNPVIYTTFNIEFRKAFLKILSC
D(1A) dopamine receptor, sequence (P21728 whole entry): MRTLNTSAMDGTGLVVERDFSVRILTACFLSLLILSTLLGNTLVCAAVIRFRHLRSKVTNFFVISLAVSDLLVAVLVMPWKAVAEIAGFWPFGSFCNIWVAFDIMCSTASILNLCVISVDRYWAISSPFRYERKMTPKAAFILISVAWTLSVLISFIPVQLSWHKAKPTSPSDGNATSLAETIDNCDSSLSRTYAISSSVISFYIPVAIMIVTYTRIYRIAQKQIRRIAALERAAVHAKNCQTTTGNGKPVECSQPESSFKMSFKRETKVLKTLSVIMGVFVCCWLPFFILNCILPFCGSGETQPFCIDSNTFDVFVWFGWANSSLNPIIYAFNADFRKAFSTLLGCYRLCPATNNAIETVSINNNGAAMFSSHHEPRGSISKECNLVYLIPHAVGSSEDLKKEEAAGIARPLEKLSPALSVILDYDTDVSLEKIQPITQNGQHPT
D(1B) dopamine receptor, sequence (P21918 whole entry): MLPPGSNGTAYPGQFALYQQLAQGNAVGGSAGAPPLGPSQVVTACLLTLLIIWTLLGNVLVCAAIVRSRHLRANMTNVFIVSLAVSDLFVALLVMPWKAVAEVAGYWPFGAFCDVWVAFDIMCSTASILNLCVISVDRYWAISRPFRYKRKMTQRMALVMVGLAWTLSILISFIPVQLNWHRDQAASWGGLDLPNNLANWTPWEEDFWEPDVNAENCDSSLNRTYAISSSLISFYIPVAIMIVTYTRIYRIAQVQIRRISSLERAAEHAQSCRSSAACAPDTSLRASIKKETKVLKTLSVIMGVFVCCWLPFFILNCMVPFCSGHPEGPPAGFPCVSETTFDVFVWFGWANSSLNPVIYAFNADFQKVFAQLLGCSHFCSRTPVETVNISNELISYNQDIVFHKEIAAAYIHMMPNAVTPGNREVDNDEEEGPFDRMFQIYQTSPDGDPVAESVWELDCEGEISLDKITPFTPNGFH

Row | SMILES | Ki (D(2) dopamine receptor [1]) | Ki (D(3) dopamine receptor) | Activity (D(2) dopamine receptor [2]) | Ki (D(1A) dopamine receptor) | Ki (D(1B) dopamine receptor) | Ki (D(4) dopamine receptor) | Ki (D(2) dopamine receptor [3])
1 | CCCN(CCN1CCN(Cc2cc3ccccc3[nH]2)CC1)c1ccc(Br)cc1 | 220 nM | 600 nM |  |  |  |  | 
2 | CCCN(CCN1CCN(Cc2cc3ccccc3[nH]2)CC1)Cc1ccc(OC)cc1 | 4100 nM | 4600 nM |  |  |  |  | 
3 | CCCN(CCN1CCN(CCc2c[nH]c3ccccc23)CC1)c1ccc(Br)cc1 | 58 nM | 89 nM | Active | 250 nM | 1300 nM | 0.72 nM | 51 nM
4 | CCCN(CCN1CCN(Cc2cc3ccccc3[nH]2)CC1)c1ccc(OC)cc1 | 520 nM | 1300 nM |  |  |  |  | 
5 | Brc1ccc(CNCCN2CCN(Cc3cc4ccccc4[nH]3)CC2)cc1 | 5200 nM | 1800 nM |  |  |  |  | 
6 | COc1ccc(NCCN2CCN(CCc3c[nH]c4ccccc34)CC2)cc1 | 430 nM | 620 nM |  |  |  |  | 
7 | COc1ccc(CNCCN2CCN(Cc3cc4ccccc4[nH]3)CC2)cc1 | 4000 nM | 4300 nM |  |  |  |  | 
8 | Brc1ccc(NCCN2CCN(CCc3c[nH]c4ccccc34)CC2)cc1 | 53 nM | 200 nM | Active | 480 nM | 3600 nM | 20 nM | 48 nM
9 | COc1ccc(NCCN2CCN(Cc3cc4ccccc4[nH]3)CC2)cc1 | 7500 nM | 18000 nM |  |  |  |  | 
10 | CCCN(CCN1CCN(Cc2cc3ccccc3[nH]2)CC1)Cc1ccc(Br)cc1 | 920 nM | 930 nM |  |  |  |  | 
11 | CCCN(CCN1CCN(CCc2c[nH]c3ccccc23)CC1)c1ccc(OC)cc1 | 120 nM | 280 nM |  |  |  |  | 
12 | Brc1ccc(NCCN2CCN(Cc3cc4ccccc4[nH]3)CC2)cc1 | 920 nM | 2300 nM |  |  |  |  | 
